Values of other authors in article PMC11975010 (Drug Design, Development and Therapy, 2025).
Read-outs that look alike come from different tables or passages of the source. Blank lines part the entries; values can stand above or below the molecule they belong to.

Legend:
[1] = administered as HP-β-CD complex formulation
[2] = at 25 °C
[3] = poor solubility in water and high permeability
[4] = not given; remark: listed apart in the source

SMILES: CC[C@@]1(O)C(=O)OCc2c1cc1n(c2=O)Cc2cc3ccccc3nc2-1 [camptothecin]
Lactone ring hydrolysis (before stabilization in HP-β-CD): 40%
Lactone ring hydrolysis (stabilized in HP-β-CD cavities): 6.7%

Clearance [1]: lower clearance
SMILES: C[C@@H]1C[C@H]2[C@@H]3CCC4=CC(=O)C=C[C@]4(C)[C@@]3(F)[C@@H](O)C[C@]2(C)[C@@]1(O)C(=O)CO [dexamethasone]

Aqueous solubility [2]: approximately 600 mg/mL
SMILES: CC(O)COC[C@H]1O[C@@H]2O[C@H]3[C@H](O)[C@@H](O)[C@@H](O[C@H]4[C@H](O)[C@@H](O)[C@@H](O[C@H]5[C@H](O)[C@@H](O)[C@@H](O[C@H]6[C@H](O)[C@@H](O)[C@@H](O[C@H]7[C@H](O)[C@@H](O)[C@@H](O[C@H]8[C@H](O)[C@@H](O)[C@@H](O[C@H]1[C@H](O)[C@H]2O)O[C@@H]8COCC(C)O)O[C@@H]7COCC(C)O)O[C@@H]6COCC(C)O)O[C@@H]5COCC(C)O)O[C@@H]4COCC(C)O)O[C@@H]3COCC(C)O (stereo partly drawn) [HP-β-CD, hydroxypropyl-beta-cyclodextrin]

Biopharmaceutical Classification System class [3]: class II
Action duration [4]: up to 12 hours
SMILES: COc1ccc(CN=c2[nH]c(N3CCC[C@H]3CO)ncc2C(=O)NCc2ncccn2)cc1Cl [AVA, Avanafil]
